# Legend:
# Conditions in all cases: 2.5E−05M
# BZD (central) = assay: Abuse liability binding screen, BZD (central) (agonist radioligand)
# Method: (§1) Compound binding was calculated as a % inhibition of the binding of a radioactively labeled ligand specific for each target.
# CB1 (h) = CB1 (h) (Homo sapiens, UniProt P21554); assay: Abuse liability binding screen, CB1 (h) (agonist radioligand)
# Method: (§2) […]. The abuse liability screen included 44 targets (receptors, transporters, on gated-channel systems) related to the dopamine, norepinephrine, serotonin, gamma-aminobutyric acid (GABA), acetylcholine, N-methyl-D-aspartate (NMDA) cannabinoid and opioid neurotransmitter systems as recommended in FDA Draft guidance on Assessment of Abuse Potential of Drugs, January 2010.
# as §1
# (§3) Results showing an inhibition or stimulation higher than 50% are considered to represent significant effects of the test compounds.
# D1 (h) = D1 (h) (Homo sapiens, UniProt P21728); assay: Abuse liability binding screen, D1 (h) (antagonist radioligand)
# Chain of D1 (h) (P21728 whole entry): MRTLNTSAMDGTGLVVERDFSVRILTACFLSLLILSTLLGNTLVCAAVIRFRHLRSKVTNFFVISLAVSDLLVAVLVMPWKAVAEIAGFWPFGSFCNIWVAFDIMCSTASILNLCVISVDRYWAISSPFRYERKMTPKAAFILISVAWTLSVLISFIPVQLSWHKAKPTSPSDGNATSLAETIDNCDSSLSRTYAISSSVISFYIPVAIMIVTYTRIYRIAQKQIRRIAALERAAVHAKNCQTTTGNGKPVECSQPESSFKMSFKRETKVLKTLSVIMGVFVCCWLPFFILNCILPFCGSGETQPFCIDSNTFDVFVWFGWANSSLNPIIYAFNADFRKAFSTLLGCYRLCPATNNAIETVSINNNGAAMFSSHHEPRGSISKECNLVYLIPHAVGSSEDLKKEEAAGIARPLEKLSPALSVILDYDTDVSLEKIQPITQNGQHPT
# Method: as §2, §1, §3
# NMDA = assay: Abuse liability binding screen, NMDA (antagonist radioligand)
# Method: as §1
# M5 (h) = biological target: T1, M5 (h) (Homo sapiens, UniProt P08912); assay: Abuse liability binding screen, M5 (h) receptor (antagonist radioligand)
# T1 sequence (P08912 1-532): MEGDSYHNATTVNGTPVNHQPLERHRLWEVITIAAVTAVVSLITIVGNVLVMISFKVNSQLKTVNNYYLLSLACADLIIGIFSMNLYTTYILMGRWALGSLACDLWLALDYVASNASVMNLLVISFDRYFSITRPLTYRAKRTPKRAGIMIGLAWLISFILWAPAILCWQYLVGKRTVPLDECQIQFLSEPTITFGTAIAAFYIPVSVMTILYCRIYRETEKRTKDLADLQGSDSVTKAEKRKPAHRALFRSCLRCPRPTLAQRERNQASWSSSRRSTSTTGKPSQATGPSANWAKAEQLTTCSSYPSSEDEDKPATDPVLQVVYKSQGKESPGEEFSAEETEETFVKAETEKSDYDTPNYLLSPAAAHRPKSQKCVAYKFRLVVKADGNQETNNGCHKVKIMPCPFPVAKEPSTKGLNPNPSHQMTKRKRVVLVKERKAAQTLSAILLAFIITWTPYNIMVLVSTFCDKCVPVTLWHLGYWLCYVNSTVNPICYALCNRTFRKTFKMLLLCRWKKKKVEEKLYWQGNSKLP
# Method: as §2, §1, §3
# OX1 (h) = biological target: T2, OX1 (h) (Homo sapiens, UniProt O43613); assay: Abuse liability binding screen, OX1 (h) (agonist radioligand)
# T2 sequence (O43613 1-425): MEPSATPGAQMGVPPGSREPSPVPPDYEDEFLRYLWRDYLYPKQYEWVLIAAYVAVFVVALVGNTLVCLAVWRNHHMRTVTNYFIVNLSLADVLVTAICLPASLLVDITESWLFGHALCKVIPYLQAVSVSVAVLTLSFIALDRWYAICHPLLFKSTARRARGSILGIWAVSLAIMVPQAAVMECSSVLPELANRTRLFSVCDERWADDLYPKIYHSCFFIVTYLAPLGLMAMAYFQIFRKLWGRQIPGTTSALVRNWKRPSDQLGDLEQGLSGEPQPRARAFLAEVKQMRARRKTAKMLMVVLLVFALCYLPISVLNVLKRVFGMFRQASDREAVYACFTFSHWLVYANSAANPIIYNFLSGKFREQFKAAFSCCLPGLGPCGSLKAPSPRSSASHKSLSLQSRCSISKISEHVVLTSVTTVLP
# Method: as §1
# PCP = assay: Abuse liability binding screen, PCP (antagonist radioligand)
# Method: as §1
# 5-HT1A (h) = biological target: T3, 5-HT1A (h) (Homo sapiens, UniProt P08908); assay: Abuse liability binding screen, 5-HT1A (h) (agonist radioligand)
# T3 sequence (P08908 1-422): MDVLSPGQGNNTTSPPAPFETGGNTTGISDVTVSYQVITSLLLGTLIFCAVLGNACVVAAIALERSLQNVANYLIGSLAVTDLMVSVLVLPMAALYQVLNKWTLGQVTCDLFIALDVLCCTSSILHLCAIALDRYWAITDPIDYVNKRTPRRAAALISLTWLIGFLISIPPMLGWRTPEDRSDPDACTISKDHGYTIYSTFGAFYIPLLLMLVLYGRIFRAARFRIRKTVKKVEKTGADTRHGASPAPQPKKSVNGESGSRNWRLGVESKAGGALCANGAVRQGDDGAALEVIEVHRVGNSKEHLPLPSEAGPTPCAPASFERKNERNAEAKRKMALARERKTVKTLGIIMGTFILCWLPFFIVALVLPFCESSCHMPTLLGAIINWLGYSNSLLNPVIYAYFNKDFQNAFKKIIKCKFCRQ
# Method: as §1
# 5-HT2B (h) = 5-HT2B (h) (Homo sapiens, UniProt P41595); assay: Abuse liability binding screen, 5-HT2B (h) (agonist radioligand)
# Chain of 5-HT2B (h) (P41595 whole entry): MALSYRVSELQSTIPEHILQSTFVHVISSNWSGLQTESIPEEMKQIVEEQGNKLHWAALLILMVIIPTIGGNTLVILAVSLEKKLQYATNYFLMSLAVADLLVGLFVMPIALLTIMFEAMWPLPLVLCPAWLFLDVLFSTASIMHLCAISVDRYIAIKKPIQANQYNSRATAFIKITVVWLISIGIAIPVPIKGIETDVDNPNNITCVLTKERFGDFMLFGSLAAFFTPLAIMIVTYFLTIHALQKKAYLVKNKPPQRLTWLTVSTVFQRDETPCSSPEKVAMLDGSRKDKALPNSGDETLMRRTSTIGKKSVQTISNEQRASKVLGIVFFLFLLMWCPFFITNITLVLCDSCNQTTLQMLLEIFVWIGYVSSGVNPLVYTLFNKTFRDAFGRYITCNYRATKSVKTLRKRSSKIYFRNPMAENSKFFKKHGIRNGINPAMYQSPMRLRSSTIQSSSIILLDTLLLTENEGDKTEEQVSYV
# Method: as §2, §1, §3
# 5-HT3 (h) = biological target: T4, 5-HT3 (h) (Homo sapiens, UniProt P46098); assay: Abuse liability binding screen, 5-HT3 (h) (antagonist radioligand)
# T4 sequence (P46098 24-478): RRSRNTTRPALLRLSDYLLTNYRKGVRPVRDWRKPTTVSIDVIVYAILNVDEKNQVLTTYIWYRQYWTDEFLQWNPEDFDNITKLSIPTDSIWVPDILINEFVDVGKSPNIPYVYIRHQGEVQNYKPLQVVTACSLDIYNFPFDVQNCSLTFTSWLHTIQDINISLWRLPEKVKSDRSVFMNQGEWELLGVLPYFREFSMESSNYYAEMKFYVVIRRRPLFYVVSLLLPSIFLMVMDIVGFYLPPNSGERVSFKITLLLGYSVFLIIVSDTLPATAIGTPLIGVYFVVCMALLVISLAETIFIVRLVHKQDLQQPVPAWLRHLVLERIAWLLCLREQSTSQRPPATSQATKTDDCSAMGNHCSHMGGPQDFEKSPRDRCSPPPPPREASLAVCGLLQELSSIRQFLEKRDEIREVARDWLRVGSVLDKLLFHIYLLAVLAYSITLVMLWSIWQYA
# Method: as §2, §1, §3
# ER (non-selective) (h) = assay: Abuse liability binding screen, ER (non-selective) (h) (agonist radioligand); set-up: species or system human
# Method: as §1
# [1] = biological target: Norepinephrine transporter (h) (Homo sapiens, UniProt P23975); assay: Abuse liability binding screen, Norepinephrine transporter (h) (antagonist radioligand)
# Chain of Norepinephrine transporter (h) (P23975 whole entry): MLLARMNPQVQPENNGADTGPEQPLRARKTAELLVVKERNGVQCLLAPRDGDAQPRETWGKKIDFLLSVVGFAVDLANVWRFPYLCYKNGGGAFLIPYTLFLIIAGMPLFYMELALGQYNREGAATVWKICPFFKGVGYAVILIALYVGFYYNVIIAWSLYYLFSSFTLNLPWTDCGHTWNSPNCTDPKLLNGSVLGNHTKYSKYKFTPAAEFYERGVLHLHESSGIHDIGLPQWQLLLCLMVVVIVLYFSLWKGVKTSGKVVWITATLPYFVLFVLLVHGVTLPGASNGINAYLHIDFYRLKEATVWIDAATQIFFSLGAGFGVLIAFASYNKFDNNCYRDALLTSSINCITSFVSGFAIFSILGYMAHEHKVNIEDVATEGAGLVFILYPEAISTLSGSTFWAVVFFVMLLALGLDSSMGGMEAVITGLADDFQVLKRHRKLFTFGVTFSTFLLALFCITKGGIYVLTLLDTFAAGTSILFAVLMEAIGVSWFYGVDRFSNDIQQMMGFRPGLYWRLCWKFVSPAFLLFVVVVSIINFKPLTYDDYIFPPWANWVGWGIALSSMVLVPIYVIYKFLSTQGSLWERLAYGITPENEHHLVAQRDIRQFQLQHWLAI
# Method: as §2, §1, §3
# Chain of CB1 (h) (P21554 whole entry): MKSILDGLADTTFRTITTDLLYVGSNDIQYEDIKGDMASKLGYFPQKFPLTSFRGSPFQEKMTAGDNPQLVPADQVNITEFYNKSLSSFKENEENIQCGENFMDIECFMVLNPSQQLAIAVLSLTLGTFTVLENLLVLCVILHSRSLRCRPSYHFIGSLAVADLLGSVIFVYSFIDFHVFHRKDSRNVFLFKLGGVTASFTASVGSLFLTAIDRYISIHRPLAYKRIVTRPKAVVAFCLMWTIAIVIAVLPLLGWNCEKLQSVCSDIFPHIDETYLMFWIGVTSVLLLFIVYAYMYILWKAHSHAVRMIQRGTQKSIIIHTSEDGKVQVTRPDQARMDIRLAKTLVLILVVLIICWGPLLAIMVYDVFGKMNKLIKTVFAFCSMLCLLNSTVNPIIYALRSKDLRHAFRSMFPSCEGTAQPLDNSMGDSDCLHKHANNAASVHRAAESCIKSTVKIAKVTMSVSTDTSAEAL
smiles,measurement,setting,value
"O=C(O)[C@H]1O[C@@H](Oc2ccc3c4c2O[C@H]2[C@@H](O)CC[C@@]5(O)[C@@H](C3)N(CC3CCC3)CC[C@]425)[C@H](O)[C@@H](O)[C@@H]1O [Compound M5, nalbuphine-3-beta-D-glucuronid]",% Inhibition of Control Specific Binding 1st,BZD (central),−13.2%
same,% Inhibition of Control Specific Binding Mean,BZD (central),−5.6%
same,% Inhibition of Control Specific Binding 1st,CB1 (h),−2.9%
same,% Inhibition of Control Specific Binding 2nd,CB1 (h),12.9%
same,% Inhibition of Control Specific Binding Mean,CB1 (h),5.0%
same,% Inhibition of Control Specific Binding 1st,D1 (h),−12.1%
same,% Inhibition of Control Specific Binding 2nd,D1 (h),2.2%
same,% Inhibition of Control Specific Binding Mean,D1 (h),−5.0%
same,% Inhibition of Control Specific Binding 1st,NMDA,−15.9%
same,% Inhibition of Control Specific Binding 2nd,NMDA,−14.7%
same,% Inhibition of Control Specific Binding 1st,M5 (h),9.9%
same,% Inhibition of Control Specific Binding 2nd,M5 (h),0.7%
same,% Inhibition of Control Specific Binding Mean,M5 (h),5.3%
same,% Inhibition of Control Specific Binding 1st,OX1 (h),5.5%
same,% Inhibition of Control Specific Binding 2nd,OX1 (h),−1.5%
same,% Inhibition of Control Specific Binding Mean,OX1 (h),2.0%
same,% Inhibition of Control Specific Binding 1st,PCP,−1.1%
same,% Inhibition of Control Specific Binding 2nd,PCP,4.9%
same,% Inhibition of Control Specific Binding Mean,PCP,1.9%
same,% Inhibition of Control Specific Binding 1st,5-HT1A (h),−7.0%
same,% Inhibition of Control Specific Binding 2nd,5-HT1A (h),3.4%
same,% Inhibition of Control Specific Binding Mean,5-HT1A (h),−1.8%
same,% Inhibition of Control Specific Binding 1st,5-HT2B (h),−3.4%
same,% Inhibition of Control Specific Binding 2nd,5-HT2B (h),3.9%
same,% Inhibition of Control Specific Binding Mean,5-HT2B (h),0.2%
same,% Inhibition of Control Specific Binding 1st,5-HT3 (h),3.2%
same,% Inhibition of Control Specific Binding 2nd,5-HT3 (h),10.9%
same,% Inhibition of Control Specific Binding Mean,5-HT3 (h),7.0%
same,% Inhibition of Control Specific Binding 1st,ER (non-selective) (h),9.0%
same,% Inhibition of Control Specific Binding 2nd,ER (non-selective) (h),10.6%
same,% Inhibition of Control Specific Binding Mean,ER (non-selective) (h),9.8%
same,% Inhibition of Control Specific Binding 1st,[1],−11.4%
same,% Inhibition of Control Specific Binding 2nd,[1],3.2%
same,% Inhibition of Control Specific Binding Mean,[1],−4.1%

# Reference: patent US9624233B2, “Compounds for treating pruritic conditions” (priority 2015, dated 2017)
